Converted amounts (≈) assume the structure as drawn.
Legend:
[1] = system: S. aureus; assay: Prevention of extraluminal biofilm on silicone catheters; type: cell-based; conditions: 3-day experiments, 0.1 M GSNO without or with 0.1 M αCD as lock solution, 37° C.
Experimental: Both biofilm and planktonic bacteria were quantified to evaluate the antibacterial activities of the proposed method. LB medium (25 mg/mL) was used to culture all bacterial strains overnight before performing the antibacterial tests. Segments of medical-grade silicone tubes were all autoclaved. Lock solutions were freshly prepared using the sterilized buffer and filtered through a 0.22 m PES syringe filter. The biofilms on the silicone surface were dip-rinsed 5 times in PBS and detached by 1-min vertexing, 1-min sonication (20% power of a 150 W probe sonifier, Branson Ultrasonics), and another 1-min vertexing for plate counting. When quantifying the planktonic bacteria, the suspension was homogenized by 1-min vertexing. […] After plate incubation at 37° C. overnight, colony-forming units (CFU) of bacteria were counted and converted to CFU/cm^2 for biofilm quantification and CFU/mL for planktonic bacteria quantification. […] In our case, the limit of detection (LOD) is 400 CFU/cm^2 for biofilm quantification and 200 CFU/mL for quantification of planktonic bacteria. […] The statistical significance between groups was determined using a student's t-test.
The overnight S. aureus culture was diluted by LB (0.25 mg/mL) medium to approximately 10^3 CFU/mL. […] The viable bacteria on the outer surface were counted following the treatment.

[2] = GSNO photodecomposition under LED white light; type: physicochemical; conditions: presence of αCD, 4-h experiment under LED white light, room temperature
Experimental: (§1) Aqueous GSNO solutions were contained in 1.5 mL disposable polystyrene cuvettes. The cuvette was caped and further sealed with parafilm. The concentrations of GSNO during storage at 37° C. or 25° C. in the dark were monitored by a UV-vis spectrophotometer (Go Direct® Fluorescence/UV-VIS Spectrophotometer) at a wavelength of 545 nm. A 4 W LED white light was used as the light source for the photodecomposition experiment at room temperature. The distance between the light source and the cuvettes was approximately 10 cm. All GSNO decomposition experiments were triplicated, and the GSNO concentration was expressed as mean±standard deviation.

[3] = at low pH; cited from earlier work
[4] = GSNO thermal decomposition via UV-Vis absorption spectroscopy; type: physicochemical
Experimental: GSNO was synthesized by nitrosation of reduced L-glutathione in acidified nitrite as previously reported.^52 After collecting GSNO precipitates and washing them using cold water and acetone, GSNO powder was vacuum dried for 4 h and stored at −20° C. GSNO powders were dissolved in phosphate buffer (PB) containing the same mole of Na2HPO4 before the pH adjustment. For example, the formal concentration of Na2HPO4 is 0.1 M when the GSNO concentration is 0.1 M. One hundred μM EDTA was always added to each solution before the solution pH was finally adjusted to 7.4 via NaOH. EDTA is a chelating agent to mask Cu^2+, a S-nitrosothiol catalyst that may exist in solvents and chemicals as an impurity.^53 For solutions with reactive agents, BSA, ascorbic acid, or cysteine was added before the pH adjustment. To prepare GSNO-CD solutions, appropriate amounts of CD powders were dissolved into the GSNO solutions prior to the pH adjustment.
as §1

[5] = NO release from silicone rubber tubes filled with lock solutions; type: physicochemical; conditions: silicone tube filled with 0.1 M GSNO without or with 0.1 M αCD, 37° C.
Experimental: The NO release was quantified by an ECO PHYSICS NO analyzer (nCLD 66). […] of castor oil was added to NO release solutions as an antifoam agent when 3 mL GSNO or GSNO-CD solutions were tested in an amber glass cell at 37° C. Humidified air was vacuumed into the solution to carry NO continuously into the chemiluminescence detection chamber at a flow rate of 100 cm^3/min. The solutions were stored in sealed amber glass vials between measurements at 37° C. To monitor the NO release from catheters, solutions were filled into 2.5 cm-long medical-grade silicone tubes (HelixMark® 60-011-07, 1.58 mm ID, 2.41 mm OD) that were scaled on both ends with plastic rods. The filled tubes were placed into the amber glass cell containing 5 mL of 0.01 M PBS with 0.1 mM EDTA (PBSE) at 37° C. N2 was used as the carrier gas at a flow rate of 100 cm^3/min to introduce NO into the analyzer. Filled tubes were stored in 10 mL PBSE at 37° C. in the dark between measurements. The soaking PBSE solution was refreshed after each measurement.

[6] = 0.1 M GSNO in 0.1 M PB, pH 7.4, 37° C., with 0.15 M αCD and 0.1 M γCD
[7] = 0.1 M GSNO in 0.1 M PB, pH 7.4, 37° C., without CD
[8] = 0.1 M GSNO with 0.15 M αCD and 0.1 M γCD versus GSNO only

## N[C@@H](CCC(=O)N[C@@H](CSN=O)C(=O)NCC(=O)O)C(=O)O [GSNO, S-nitrosoglutathione]
[1]
  reduction of bacterial biofilm on the outer catheter surface compared to control solutions: 70%
[2]
  decrease in the decomposition rate of GSNO: ~2 fold
[3]
  aqueous solubility: 75 mM (≈ 25.2 mg/mL)
[4]; 0.05 M GSNO and 0.15 M αCD in 0.05 M PB, pH 7.4, 37° C.
  GSNO lifetime: 17 days
[4]; 0.05 M GSNO in 0.05 M PB, pH 7.4, 37° C., without CDs
  GSNO lifetime: 7 days
[4]; 0.1 M GSNO in 0.1 M PB, pH 7.4, 37° C., with 0.1 M αCD
  GSNO decay in the first 24 h: 39%
[4]; [6]
  GSNO lifetime: 15 days
  first-day decay of GSNO: 22%
[4]; 0.1 M GSNO in 0.1 M PB, pH 7.4, 37° C., with an equal mole (0.1 M) of αCD
  GSNO lifetime: 11 days
[4]; [7]
  GSNO degraded within the first 24 h: 66%
  GSNO lifetime: 6 days
[4]; [8]
  improvement of GSNO lifetime: 2.5 times
  improvement of first-day decay: 3 times
[4]; in the presence of CDs at 37° C.
  lifetime of 0.1 M GSNO: up to 15 days
[4]; phosphate buffer, room temperature, 0.05 M GSNO in 0.05 M PB pH 7.4, with 0.15 M αCD
  half-life at 0.05 M: ~20 days
[4]; room temperature, with 0.15 M αCD
  half-life of GSNO relative to only GSNO: 4 times
[5]
  initial release of NO on day 0: 14.8×10^−10 mol cm^−2 min^−1
[5]; in pH 7.4 PBSE
  duration of NO release over 0.1×10^−10 mol cm^−2 min^−1 from the catheter exterior: 6 days

Source: patent US20250313653A1, “GUEST/HOST INCLUSION COMPLEXES CONTAINING S-NITROSOGLUTATHIONE AND METHODS OF USE THEREOF” (VIRGINIA COMMONWEALTH UNIVERSITY, priority 2022, published 2025)
